From patent US20220105135A1, “METHODS AND COMPOSITIONS FOR THE MODULATION OF OPIOID SIGNALING IN THE TUMOR MICROENVIRONMENT” (The Broad Institute, Inc., priority 2020, published 2022)

Key:
aminopeptidase B = aminopeptidase B (Homo sapiens, UniProt Q9H4A4); conditions: cited from earlier work
leucine aminopeptidase = conditions: cited from earlier work
aminopeptidase A = aminopeptidase A (Homo sapiens, UniProt Q07075); conditions: cited from earlier work
trypsin = trypsin (Homo sapiens, UniProt P07477); conditions: cited from earlier work
chymotrypsin = chymotrypsin (Bos taurus, UniProt P00766); conditions: cited from earlier work
elastase = conditions: cited from earlier work
papain = molecular target: T1, papain (Carica papaya, UniProt P00784); conditions: cited from earlier work
T1 sequence (P00784 134-345): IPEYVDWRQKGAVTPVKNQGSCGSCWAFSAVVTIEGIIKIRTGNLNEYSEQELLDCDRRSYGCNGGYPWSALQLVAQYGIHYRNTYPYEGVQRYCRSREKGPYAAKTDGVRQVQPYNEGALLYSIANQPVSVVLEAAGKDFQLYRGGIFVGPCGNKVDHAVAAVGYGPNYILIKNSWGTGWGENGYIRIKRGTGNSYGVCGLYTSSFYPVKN

pepsin = pepsin (Homo sapiens, UniProt P0DJD8); conditions: cited from earlier work
thermolysin = molecular target: T2, thermolysin (Bacillus thermoproteolyticus, UniProt P00800); conditions: cited from earlier work
T2 sequence (P00800 233-548): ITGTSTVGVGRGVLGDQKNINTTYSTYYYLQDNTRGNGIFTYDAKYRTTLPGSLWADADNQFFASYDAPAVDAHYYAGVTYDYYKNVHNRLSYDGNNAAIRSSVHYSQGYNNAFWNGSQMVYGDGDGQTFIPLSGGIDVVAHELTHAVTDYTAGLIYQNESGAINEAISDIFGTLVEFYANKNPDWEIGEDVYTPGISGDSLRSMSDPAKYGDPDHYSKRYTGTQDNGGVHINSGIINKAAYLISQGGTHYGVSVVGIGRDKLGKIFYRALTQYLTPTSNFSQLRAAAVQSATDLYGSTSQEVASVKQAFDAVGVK

bacteria = tested on: bacteria; design: dose or concentration left out as unconfirmed; conditions: cited from earlier work
fungi = conditions: at 100 pg/ml; cited from earlier work
[1] = intraperitoneal injection of 300 mg/kg to mice; cited from earlier work
CD8+ T cells = assay: In vitro stimulation of CD8+ T cells with MENK peptide; type: cell-based; conditions: for coinhibitory receptors / checkpoints expression on T cells: MENK stimulation
Excerpt: FIG. 55A. […] FIG. 55B. […] FIG. 55C. […] FIG. 55D.
Applicants determined the effect of PENK-OGFR signaling on tumor growth and anti-tumor immunity.

[2] = MENK vs control, in vitro, listed as Menk

Chain of aminopeptidase A (Q07075 whole entry, species assumed): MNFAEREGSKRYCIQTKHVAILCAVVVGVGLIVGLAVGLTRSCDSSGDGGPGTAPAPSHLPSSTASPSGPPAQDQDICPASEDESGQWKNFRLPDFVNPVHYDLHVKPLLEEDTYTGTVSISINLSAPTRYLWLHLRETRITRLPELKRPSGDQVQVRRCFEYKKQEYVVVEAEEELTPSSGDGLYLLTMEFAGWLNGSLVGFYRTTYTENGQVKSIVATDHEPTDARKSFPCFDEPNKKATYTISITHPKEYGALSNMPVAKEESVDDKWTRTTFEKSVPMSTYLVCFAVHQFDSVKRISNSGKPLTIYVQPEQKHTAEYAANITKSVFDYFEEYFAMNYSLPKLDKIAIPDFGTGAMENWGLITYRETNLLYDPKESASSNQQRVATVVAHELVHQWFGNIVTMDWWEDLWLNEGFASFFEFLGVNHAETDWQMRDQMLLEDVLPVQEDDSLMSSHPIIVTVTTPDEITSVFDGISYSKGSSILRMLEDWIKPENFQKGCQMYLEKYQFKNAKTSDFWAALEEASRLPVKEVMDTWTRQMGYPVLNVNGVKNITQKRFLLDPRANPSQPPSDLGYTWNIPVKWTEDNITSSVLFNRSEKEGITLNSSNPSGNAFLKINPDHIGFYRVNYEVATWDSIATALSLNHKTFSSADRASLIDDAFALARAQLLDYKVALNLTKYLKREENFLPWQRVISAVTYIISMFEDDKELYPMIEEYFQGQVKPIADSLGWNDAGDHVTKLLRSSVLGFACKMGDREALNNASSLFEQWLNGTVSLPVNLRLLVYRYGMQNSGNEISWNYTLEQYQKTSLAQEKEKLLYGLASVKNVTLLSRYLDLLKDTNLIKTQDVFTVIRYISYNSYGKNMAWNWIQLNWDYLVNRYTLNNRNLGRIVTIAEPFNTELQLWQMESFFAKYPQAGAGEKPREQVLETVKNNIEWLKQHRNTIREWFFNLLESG
Chain of aminopeptidase B (Q9H4A4 whole entry, species assumed): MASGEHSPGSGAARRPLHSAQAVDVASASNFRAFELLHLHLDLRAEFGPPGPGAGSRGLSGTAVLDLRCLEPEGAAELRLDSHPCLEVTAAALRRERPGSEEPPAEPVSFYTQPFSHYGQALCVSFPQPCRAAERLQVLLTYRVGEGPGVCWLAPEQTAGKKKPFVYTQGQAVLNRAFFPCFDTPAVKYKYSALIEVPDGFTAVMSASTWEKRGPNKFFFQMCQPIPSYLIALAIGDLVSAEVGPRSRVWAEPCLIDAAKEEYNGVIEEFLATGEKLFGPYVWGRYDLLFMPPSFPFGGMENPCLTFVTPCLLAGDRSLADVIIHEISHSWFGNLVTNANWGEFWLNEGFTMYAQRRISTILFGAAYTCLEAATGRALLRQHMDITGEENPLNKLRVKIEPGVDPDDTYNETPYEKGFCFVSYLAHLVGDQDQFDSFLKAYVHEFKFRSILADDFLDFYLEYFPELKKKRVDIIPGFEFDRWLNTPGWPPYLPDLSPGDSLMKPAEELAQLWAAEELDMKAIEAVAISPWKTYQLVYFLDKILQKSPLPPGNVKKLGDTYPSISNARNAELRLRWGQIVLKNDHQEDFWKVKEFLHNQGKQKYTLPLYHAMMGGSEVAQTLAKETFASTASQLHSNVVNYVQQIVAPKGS
Chain of pepsin (P0DJD8 63-388): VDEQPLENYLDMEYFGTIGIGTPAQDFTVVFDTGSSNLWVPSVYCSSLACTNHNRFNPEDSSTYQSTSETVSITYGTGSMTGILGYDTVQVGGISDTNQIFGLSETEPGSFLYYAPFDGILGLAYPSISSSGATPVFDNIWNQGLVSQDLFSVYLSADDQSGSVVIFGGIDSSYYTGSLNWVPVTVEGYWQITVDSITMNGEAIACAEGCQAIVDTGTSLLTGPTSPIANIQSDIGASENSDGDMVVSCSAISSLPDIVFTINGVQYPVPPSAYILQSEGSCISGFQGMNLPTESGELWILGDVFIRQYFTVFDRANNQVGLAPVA

CC(C)C[C@H](NC(=O)[C@@H](O)[C@H](N)Cc1ccccc1)C(=O)O [Bestatin, ubenimex (bestatin)]
inhibition of aminopeptidase B (aminopeptidase B): specific inhibitor | inhibition of leucine aminopeptidase (leucine aminopeptidase): specific inhibitor | inhibition of aminopeptidase A (aminopeptidase A): does not show any inhibition | inhibition of trypsin (trypsin): does not show any inhibition | inhibition of chymotrypsin (chymotrypsin): does not show any inhibition | inhibition of elastase (elastase): does not show any inhibition | inhibition of papain (papain): does not show any inhibition | inhibition of pepsin (pepsin): does not show any inhibition | inhibition of thermolysin (thermolysin): does not show any inhibition | antibacterial activity (bacteria): no antibacterial | antifungal activity (fungi): no antifungal | toxicity (death) [1]: no death

[Met]enkephalin (YGGFM) [MENK, enkephalin peptide produced by proteolytic cleavage of PENK]
coinhibitory receptors / checkpoints expression on T cells (CD8+ T cells): increases | coinhibitory receptors / checkpoints expression on T cells (CD8+ T cells; listed as Menk): increased expression of several checkpoints | CD160 (CD8+ T cells; MENK vs control, in vitro): increased | IL-2 (CD8+ T cells; MENK vs control, in vitro): decreased | PD1 (CD8+ T cells; MENK vs control, in vitro): increased | PD1+ TIM3+CD8+ T cells (CD8+ T cells; MENK vs control, in vitro): increased | TIM3 (CD8+ T cells; MENK vs control, in vitro): increased | proliferation (CD8+ T cells; MENK vs control, in vitro): decreased | IL-2 (CD8+ T cells; [2]): dampened | proliferation (CD8+ T cells; [2]): some reduction
